What was measured:
mice = assay: Object Recognition task (ORT), scopolamine-induced memory impairment; format: in vivo; conditions: 1 mg/kg intraperitoneally with scopolamine 0.5 mg/kg
Description: For behavioural studies, 50 swiss female 10-week-old weighing 25-30 g were used. Memory impairment was induced by the potent antimuscarinic drug scopolamine hydrobromide (0.5 mg/kg, Sigma) dissolved in saline buffer. To explore the potential of BIGI-3h as a cognitive enhancer, the compound was administered at a dose of 1 mg/kg and 10 mg/kg. For comparison, the antiamnesic effect of donepezil was tested (Tocris Bioscience, R&D Systems Inc.) at a dose of 1 mg/kg. Both products, 3h and donepezil, were dissolved in saline buffer containing 3.6% dimethyl sulfoxide. All drug solutions were independently prepared immediately before their use and were administered intraperitoneally in 10 mL/kg of vehicle volume. Different batches of mice were used for each experiment. The animals were distributed into 5 experimental groups (I-V): control groups (I) mice administered 3.6% DMSO in saline buffer, labelled as "control vehicle"; experimental groups (II-V) consisted of (II) mice administered scopolamine dissolved in 3.6% DMSO in saline buffer, labelled as "scop/DMSO," (III) mice co-administered scopolamine plus Donepezil, labelled as "Scopo/donep," (IV) and (V) mice co-administrated scopolamine plus BIGI-3h at 1mg/Kg and 10mg/Kg labelled respectively "Scopo/3h 1" "Scopo/3h 10".
Spontaneous object recognition was tested as described previously, 28 with slight modifications. All behavioural experiments took place during the light phase of the 12-h light/ dark cycle between 10 am and 3 pm to minimize the influence of circadian rhythm, and they were conducted with the investigators blind to treatments. […] The total time spent in active exploration of each object during T1 and T2 was determined with a computerized tracking system and image analyzer (Ethovision XT, Noldus Information Technology) that tracked the nose, centre and tail points of each mouse^45. As a criterion of active object exploration, it was measured the time spent by the animal directing its nose to the object at a distance of less than 2 cm and/or touching it with the vibrissae or nose. […]

Tau(306-336) peptide = Tau(306-336) peptide (Homo sapiens, UniProt P10636); conditions: Tau(306-336) 50 µM, inhibitor 50 µM (1:1 ratio); mean ± SEM
Chain of Tau(306-336) peptide (P10636 623-653 limits assumed): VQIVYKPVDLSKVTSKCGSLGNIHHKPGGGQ
Description: Subsequently, the sample was aliquoted dried and stored at -20 °C.
Fluorescence data were recorded every 10 min overnight with 1 min shaking at 800 rpm prior to each reading. Each inhibitor was assayed in triplicates in at least two independent experiments. […] Inhibition % are expressed as the mean ± SEM. […] Values were averaged and the presented values are expressed as the mean ± SEM.
Fluorescence data were recorded every 10 min overnight with 1 min shaking at 800 rpm prior to each reading.

Compound | recognition index / discrimination index (Figure 5) (mice) | Inhibition of T (306-336) peptide self - aggregation (%) (Tau(306-336) peptide)
COc1cc2c(cc1OC)C(=O)C(CC1CCN(Cc3ccccc3)CC1)C2 (centres unmarked) [donepezil, reference compound] | reversed the short-term memory impairment induced by scopolamine | 
Nc1c2c(nc3ccccc13)CCCC2 [tacrine, reference compound] |  | not able to significantly interfere

— patent EP4168403B1 (priority 2020, dated 2021)
